Here are results for 3 compounds from paper PMC4168258 (Biochemical pharmacology, 2014).

For data set [1] the following is noted: cited from earlier work.
For data set [2] the following is noted: mouse, in vivo, po, 40 mg/kg.
The target of a further data set is CYP2C9 (Homo sapiens, UniProt P11712). Put plainly: Kinetic study of metabolite formation by recombinant CYP2C9. Particulars: recombinant CYP2C9 incubations.
For data set [3] the following is noted: cited from earlier work. This is another data set of the same source.

CYP2C9, sequence (P11712 whole entry): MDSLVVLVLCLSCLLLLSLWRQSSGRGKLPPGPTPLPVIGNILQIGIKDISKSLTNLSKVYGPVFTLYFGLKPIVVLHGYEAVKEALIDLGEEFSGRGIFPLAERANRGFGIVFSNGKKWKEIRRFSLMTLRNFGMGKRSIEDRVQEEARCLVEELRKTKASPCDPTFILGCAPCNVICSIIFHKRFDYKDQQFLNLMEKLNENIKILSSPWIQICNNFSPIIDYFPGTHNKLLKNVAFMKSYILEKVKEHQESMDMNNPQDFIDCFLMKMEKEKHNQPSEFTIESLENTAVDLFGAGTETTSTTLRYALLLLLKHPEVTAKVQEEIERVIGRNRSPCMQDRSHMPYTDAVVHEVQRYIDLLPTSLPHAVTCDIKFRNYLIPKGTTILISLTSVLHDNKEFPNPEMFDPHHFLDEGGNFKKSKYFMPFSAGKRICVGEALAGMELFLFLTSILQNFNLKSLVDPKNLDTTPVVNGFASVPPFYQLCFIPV

For the compound `O=C(C1CCCCC1)N1CC(=O)N2CCc3ccccc3[C@H]2C1` [(S)-PZQ], in data set [1], the “systemic levels compared with (R)-PZQ” value is reported as “higher”.
Take `O=C(C1CCC(O)CC1)N1CC(=O)N2CCc3ccccc3C2C1` (centres unmarked) [III, 4-OH PZQ]: in data set [2], the “Source (matrix in which detected)” value is recorded as “urine, feces”.
Regarding `O=C(C1CCCCC1)N1CC(=O)N2CCc3ccccc3[C@@H]2C1` [(R)-PZQ], the “production of metabolite V” value at CYP2C9 is reported as “not detected”. Moreover, the “side effects compared with racemic PZQ” value in data set [3] (single administration of 20 mg/kg vs 40 mg/kg racemic) is “fewer side effects”. In addition, the “activity compared with 40 mg/kg of racemic PZQ” value in data set [3] (single administration of 20 mg/kg) is given as “same activity”.
